Source: patent US9060985B2, “Use of rosmarinic acid and the derivatives thereof to treat ciguatera” (priority 2009, dated 2015)
In brackets after ≈: the same amount, converted by molar mass.

Experiments:
ciguatoxins = conditions: cited from earlier work
[1] = system: voltage-dependent sodium channels; type: binding, rat
mouse = conditions: cited from earlier work
[2] = system: neuroblastoma cell cultures; assay: Inhibition of the cytotoxicity caused by extracts of toxic loach or toxic giant clams on neuroblastoma cell cultures (MTT, with ouabain/veratridine); type: cell-based
Description: The sample of salmon-pink loach (Ref15), supplied by the Louis Malardé Institute, was collected at Mururoa (Tuamotu Archipelago, French Polynesia). The sample of giant clam (GPS59) was collected at Raivavae (Austral Islands, French Polynesia). The toxicity of these two samples was confirmed beforehand on mice, by a cytotoxicity assay on neuroblastomas and radioligand assays with P-CTX-3.
The samples are stored at 4° C. The rosmarinic acid was obtained from Sigma.
96-well plates are prepared with 50 000 cells in 100 μL of medium per well. The outer wells are not used, to avoid variations of response due to edge effects. The cells are incubated for 24 h at 37° C. with 5% CO2 to give them time to adhere.
A mixture of ouabain (cardiac glycoside involved in cellular permeability, inhibiting the Na/K pump) and veratridine (polycyclic alkaloid which leads to persistent activation of the sodium channels), designated O/V hereinafter, in which the two active substances are present respectively at a final concentration of 0.33 and 0.033 mM in 20 μl, is added to the wells.
Ouabain is an inhibitor of ATPase Na^+/K^+, and veratridine is an activator of the sodium channels. The combined action of these two products induces a raised intracellular level of sodium and causes a change in the morphology of the cells, which greatly reduces their viability. […]
All the plates have a standard control of culture medium (cells only) and a control with cells in the presence of the O/V mixture. Rosmarinic acid is tested alone with the O/V mixture to record effects of cytotoxicity or of cellular proliferation as well as any interferences of coloration due to strong concentrations of products, which can lead to false positives in spectrophotometer readings. […]
After incubation for 1.5 h, the formazan crystals that formed are dissolved with 150 μL of DMSO (dimethylsulfoxide) for each well. After homogenization, the plates are read with a UV plate reader at 490 nm. Then the data are transferred and processed using Excel® and analyzed with the GraphPad Prism® software (version 4).

symptoms of ciguatera = conditions: cited from earlier work

C=C/C=C\CC[C@H]1O[C@H]2CC[C@@]3(C)O[C@H]4[C@@H](O)C[C@@]5(C)O[C@@H](CC/C=C(C)/C(C)=C/C=O)[C@@H](C)C[C@@H]5O[C@@H]4C[C@@H]3O[C@@H]2CC[C@@]1(C)O [brevenal]
inhibition of neurotoxic effects induced by the ciguatoxins (ciguatoxins): powerful inhibitor

O=C(/C=C/c1ccc(O)c(O)c1)O[C@H](Cc1ccc(O)c(O)c1)C(=O)O [rosmarinic acid, (R)-a-[[3-(3,4-dihydroxyphenyl)-1-oxo-2E-propenyl]oxy]-3,4-dihydroxybenzenepropanoic acid]
IC50 (50% inhibition of interaction with [^3H]PbTx-3) [1]: 880 µg/mL
Ki [1]: 1430 µM
measured radioactivity (replacement of tritiated brevetoxin on the sodium channels) [1]: decrease in the measured radioactivity
toxicity (mouse; at 531 mg/kg i.v. in the mouse): does not display toxicity
LD50 (mouse; intravenously (i.v.) in the mouse): 531 mg/kg
IC50 ([2]; Neuroblastoma cell, neuroblastomas, toxic extracts, estimated, read-out: IC50 (concentration for 50% decrease in cellular mortality caused by ciguatoxins and associated toxins)): 500 to 1000 µg/mL (≈ 1390 to 2780 µM)
concentration from which cellular viability is significantly increased ([2]; toxic giant clam extract GPS59 at 100 μg/ml, O/V mixture): ≥ 50 µg/mL
effect on cellular viability of neuroblastomas (cytotoxicity of toxic giant clam extract) ([2]; toxic giant clam extract GPS59 at 100 μg/ml, O/V mixture, rosmarinic acid 10 to 1000 μg/ml, 18 h, MTT): protective effect

OC[C@@H](O)[C@@H](O)[C@H](O)[C@H](O)CO [mannitol, Mannitol]
effect on neurological and muscular disorders (symptoms of ciguatera; administered 48 to 72 hours after intoxication): capable of alleviating neurological and muscular disorders
effect on the symptoms of ciguatera (symptoms of ciguatera; blind clinical trials, mannitol and a saline solution, after 24 hours): did not, however, show a beneficial effect
